Assay results: patent US10617693B2, “Methods of treating and/or preventing actinic keratosis” (Athenex, Inc., priority 2017, dated 2020)

System: subjects with AK on the face or scalp
Experiment: Phase 2a study KX01-AK-002: local skin reactions (grade 0 not present to 4 worst) and adverse events, 0.5 mg KX-01 on 25 cm^2
Format: in vivo, human
From the text: An ongoing Phase 2a, open-label, multicenter, activity and safety study of KX-01 administered topically in subjects with AK on the face or scalp is described herein. […] Secondary objectives are to assess the activity of KX-01 administered topically during Days 1-57 based on reduction of AK lesion counts from baseline, assess the safety and tolerability and pharmacokinetics, and contrast the dose regimens (5-day treatment with 3-day treatment) in terms of activity and safety in subjects with AK on the face or scalp. This uncontrolled, nonrandomized trial is being conducted at 16 investigational sites in the United States. Enrollment is sequential for 2 cohorts of approximately 80 subjects each. Enrollment is closed for Cohort 1 and ongoing for Cohort 2. The two treatment cohorts are summarized below: • Cohort 1: 0.5 mg KX-01 administered topically to a contiguous treatment area of 25 cm^2 with 4-8 clinically typical AK lesions for 5 consecutive days • Cohort 2: 0.5 mg KX-01 administered topically to a contiguous treatment area of 25 cm^2 with 4-8 clinically typical AK lesions for 3 consecutive days
0.5 mg KX-01 is administered topically to an area of 25 cm^2 on the face or scalp by site staff on treatment days. […] AK lesion counts are recorded at baseline, days 8, 15, 29, and 57. […] Standardized photography of treatment area is performed at baseline, day 8 and day 57. Plasma samples are being collected at preplanned time points on days 1 and 5 for Cohort 1, and on days 1 and 3 for Cohort 2.
Absence or presence of hyperpigmentation, hypopigmentation and scarring are also assessed. Application site reactions not classified as LSRs are reported as AEs. […] LSRs and AEs are reported separately. All LSRs, pigmentation, and scarring in the treatment area will be followed to resolution or stabilization.
The range of possible composite scores is 0-24.
The Phase 2a trial described in Example 2a was completed with 84 eligible subjects enrolled in each of two cohorts: one cohort was subjected to the treatment for 5 consecutive days, and the other cohort was subjected to the treatment for 3 consecutive days. The results are described below and in FIG. 5.

Structure (SMILES): O=C(Cc1ccc(-c2ccc(OCCN3CCOCC3)cc2)cn1)NCc1ccccc1 [KX-01]
- Vesiculation/Pustulation grade 0, n/N subjects (Day 3, Cohort 1 (5-day)): 67/67
- Vesiculation/Pustulation grade 1, n/N subjects (Day 3, Cohort 1 (5-day)): 0
- Vesiculation/Pustulation grade 2, n/N subjects (Day 3, Cohort 1 (5-day)): 0
- Vesiculation/Pustulation grade 3, n/N subjects (Day 3, Cohort 1 (5-day)): 0
- Vesiculation/Pustulation grade 4, n/N subjects (Day 3, Cohort 1 (5-day)): 0
- Crusting grade 0, n/N subjects (Day 4, Cohort 1 (5-day)): 61/67
- Crusting grade 1, n/N subjects (Day 4, Cohort 1 (5-day)): 4/67
- Crusting grade 2, n/N subjects (Day 4, Cohort 1 (5-day)): 2/67
- Crusting grade 3, n/N subjects (Day 4, Cohort 1 (5-day)): 0
- Crusting grade 4, n/N subjects (Day 4, Cohort 1 (5-day)): 0
- Erosion/Ulceration grade 0, n/N subjects (Day 4, Cohort 1 (5-day)): 65/67
- Erosion/Ulceration grade 1, n/N subjects (Day 4, Cohort 1 (5-day)): 2/67
- Erosion/Ulceration grade 2, n/N subjects (Day 4, Cohort 1 (5-day)): 0
- Erosion/Ulceration grade 3, n/N subjects (Day 4, Cohort 1 (5-day)): 0
- Erosion/Ulceration grade 4, n/N subjects (Day 4, Cohort 1 (5-day)): 0
- Erythema grade 0, n/N subjects (Day 4, Cohort 1 (5-day)): 19/67
- Erythema grade 1, n/N subjects (Day 4, Cohort 1 (5-day)): 26/67
- Erythema grade 2, n/N subjects (Day 4, Cohort 1 (5-day)): 17/67
- Erythema grade 3, n/N subjects (Day 4, Cohort 1 (5-day)): 5/67
- Erythema grade 4, n/N subjects (Day 4, Cohort 1 (5-day)): 0
- Flaking/Scaling grade 0, n/N subjects (Day 4, Cohort 1 (5-day)): 43/67
- Flaking/Scaling grade 1, n/N subjects (Day 4, Cohort 1 (5-day)): 16/67
- Flaking/Scaling grade 2, n/N subjects (Day 4, Cohort 1 (5-day)): 5/67
- Flaking/Scaling grade 3, n/N subjects (Day 4, Cohort 1 (5-day)): 3/67
- Flaking/Scaling grade 4, n/N subjects (Day 4, Cohort 1 (5-day)): 0
- Swelling grade 0, n/N subjects (Day 4, Cohort 1 (5-day)): 65/67
- Swelling grade 1, n/N subjects (Day 4, Cohort 1 (5-day)): 2/67
- Swelling grade 2, n/N subjects (Day 4, Cohort 1 (5-day)): 0
- Swelling grade 3, n/N subjects (Day 4, Cohort 1 (5-day)): 0
- Swelling grade 4, n/N subjects (Day 4, Cohort 1 (5-day)): 0
- Vesiculation/Pustulation grade 0, n/N subjects (Day 4, Cohort 1 (5-day)): 66/67
- Vesiculation/Pustulation grade 1, n/N subjects (Day 4, Cohort 1 (5-day)): 1/67
- Vesiculation/Pustulation grade 2, n/N subjects (Day 4, Cohort 1 (5-day)): 0
- Vesiculation/Pustulation grade 3, n/N subjects (Day 4, Cohort 1 (5-day)): 0
- Vesiculation/Pustulation grade 4, n/N subjects (Day 4, Cohort 1 (5-day)): 0
- Crusting grade 0, n/N subjects (Day 5, Cohort 1 (5-day)): 56/67
- Crusting grade 1, n/N subjects (Day 5, Cohort 1 (5-day)): 9/67
- Crusting grade 2, n/N subjects (Day 5, Cohort 1 (5-day)): 2/67
- Crusting grade 3, n/N subjects (Day 5, Cohort 1 (5-day)): 0
- Crusting grade 4, n/N subjects (Day 5, Cohort 1 (5-day)): 0
- Erosion/Ulceration grade 0, n/N subjects (Day 5, Cohort 1 (5-day)): 61/67
- Erosion/Ulceration grade 1, n/N subjects (Day 5, Cohort 1 (5-day)): 6/67
- Erosion/Ulceration grade 2, n/N subjects (Day 5, Cohort 1 (5-day)): 0
- Erosion/Ulceration grade 3, n/N subjects (Day 5, Cohort 1 (5-day)): 0
- Erosion/Ulceration grade 4, n/N subjects (Day 5, Cohort 1 (5-day)): 0
- Erythema grade 0, n/N subjects (Day 5, Cohort 1 (5-day)): 12/67
- Erythema grade 1, n/N subjects (Day 5, Cohort 1 (5-day)): 19/67
- Erythema grade 2, n/N subjects (Day 5, Cohort 1 (5-day)): 27/67
- Erythema grade 3, n/N subjects (Day 5, Cohort 1 (5-day)): 9/67
- Erythema grade 4, n/N subjects (Day 5, Cohort 1 (5-day)): 0
- Flaking/Scaling grade 0, n/N subjects (Day 5, Cohort 1 (5-day)): 35/67
- Flaking/Scaling grade 1, n/N subjects (Day 5, Cohort 1 (5-day)): 21/67
- Flaking/Scaling grade 2, n/N subjects (Day 5, Cohort 1 (5-day)): 9/67
- Flaking/Scaling grade 3, n/N subjects (Day 5, Cohort 1 (5-day)): 2/67
- Flaking/Scaling grade 4, n/N subjects (Day 5, Cohort 1 (5-day)): 0
- Swelling grade 0, n/N subjects (Day 5, Cohort 1 (5-day)): 58/67
- Swelling grade 1, n/N subjects (Day 5, Cohort 1 (5-day)): 7/67
- Swelling grade 2, n/N subjects (Day 5, Cohort 1 (5-day)): 1/67
- Swelling grade 3, n/N subjects (Day 5, Cohort 1 (5-day)): 1/67
- Swelling grade 4, n/N subjects (Day 5, Cohort 1 (5-day)): 0
- Vesiculation/Pustulation grade 0, n/N subjects (Day 5, Cohort 1 (5-day)): 65/67
- Vesiculation/Pustulation grade 1, n/N subjects (Day 5, Cohort 1 (5-day)): 2/67
- Vesiculation/Pustulation grade 2, n/N subjects (Day 5, Cohort 1 (5-day)): 0
- Vesiculation/Pustulation grade 3, n/N subjects (Day 5, Cohort 1 (5-day)): 0
- Vesiculation/Pustulation grade 4, n/N subjects (Day 5, Cohort 1 (5-day)): 0
- Crusting grade 0, n/N subjects (Day 8, Cohort 1 (5-day)): 51/67
- Crusting grade 1, n/N subjects (Day 8, Cohort 1 (5-day)): 15/67
- Crusting grade 2, n/N subjects (Day 8, Cohort 1 (5-day)): 1/67
- Crusting grade 3, n/N subjects (Day 8, Cohort 1 (5-day)): 0
- Crusting grade 4, n/N subjects (Day 8, Cohort 1 (5-day)): 0
- Erosion/Ulceration grade 0, n/N subjects (Day 8, Cohort 1 (5-day)): 65/67
- Erosion/Ulceration grade 1, n/N subjects (Day 8, Cohort 1 (5-day)): 1/67
- Erosion/Ulceration grade 2, n/N subjects (Day 8, Cohort 1 (5-day)): 1/67
- Erosion/Ulceration grade 3, n/N subjects (Day 8, Cohort 1 (5-day)): 0
- Erosion/Ulceration grade 4, n/N subjects (Day 8, Cohort 1 (5-day)): 0
- Erythema grade 0, n/N subjects (Day 8, Cohort 1 (5-day)): 14/67
- Erythema grade 1, n/N subjects (Day 8, Cohort 1 (5-day)): 24/67
- Erythema grade 2, n/N subjects (Day 8, Cohort 1 (5-day)): 25/67
- Erythema grade 3, n/N subjects (Day 8, Cohort 1 (5-day)): 4/67
- Erythema grade 4, n/N subjects (Day 8, Cohort 1 (5-day)): 0
- Flaking/Scaling grade 0, n/N subjects (Day 8, Cohort 1 (5-day)): 26/67
- Flaking/Scaling grade 1, n/N subjects (Day 8, Cohort 1 (5-day)): 18/67
- Flaking/Scaling grade 2, n/N subjects (Day 8, Cohort 1 (5-day)): 15/67
- Flaking/Scaling grade 3, n/N subjects (Day 8, Cohort 1 (5-day)): 8/67
- Flaking/Scaling grade 4, n/N subjects (Day 8, Cohort 1 (5-day)): 0
- Swelling grade 0, n/N subjects (Day 8, Cohort 1 (5-day)): 64/67
- Swelling grade 1, n/N subjects (Day 8, Cohort 1 (5-day)): 3/67
- Swelling grade 2, n/N subjects (Day 8, Cohort 1 (5-day)): 0
- Swelling grade 3, n/N subjects (Day 8, Cohort 1 (5-day)): 0
- Swelling grade 4, n/N subjects (Day 8, Cohort 1 (5-day)): 0
- Vesiculation/Pustulation grade 0, n/N subjects (Day 8, Cohort 1 (5-day)): 67/67
- Vesiculation/Pustulation grade 1, n/N subjects (Day 8, Cohort 1 (5-day)): 0
- Vesiculation/Pustulation grade 2, n/N subjects (Day 8, Cohort 1 (5-day)): 0
